Experimental findings from the SangsterLogP compilation are described below.

Series [1] can be described thus: method code SF, from DOI: 10.1016/0223-5234(90)90118-m.

One may read the logP as a log measure of how a compound divides between an organic and an aqueous phase. A low value points to a more hydrophilic compound. Turning to `CC(=O)N(C(C)=O)c1ccc2nn(C3CCCC3)nc2c1`, the lipophilicity (logP) stood at 2.73. On the same count and under the same terms, the value for `O=[N+]([O-])c1ccc(S(=O)(=O)Nc2ccc3nn(C4CCCC4)nc3c2)cc1` was 3.82.

`CC(=O)Nc1ccc2nn(C3CCCC3)nc2c1`: the log partition coefficient (logP) in series [1] stood at 2.45. For `O=C(Nc1ccc2nn(C3CCCC3)nc2c1)c1ccc(C(F)(F)F)cc1`, in series [1], the logP is 4.95. On the same count and under the same terms, the value for `CC(C)COC(=O)Nc1ccc2nn(C3CCCC3)nc2c1` was 4.28; that for `O=C(Nc1ccc2nn(C3CCCC3)nc2c1)C(Cl)(Cl)Cl` was 4.12. In series [1], `O=C(CCl)Nc1ccc2nn(C3CCCC3)nc2c1` showed a logP of 2.78. On to `O=C(Nc1ccc2nn(C3CCCC3)nc2c1)c1ccccc1`, for which, in series [1], the logP came to 3.85. `CC(C)(C)C(=O)c1cccc2nn(C3CCCC3)nc12` returned a logP of 3.4. `CCOC(=O)Nc1ccc2nn(C3CCCC3)nc2c1` yielded a logP in series [1] of 3.43. For the compound `COc1cc(C(=O)Nc2ccc3nn(C4CCCC4)nc3c2)cc(OC)c1OC`, the logP was 3.87.

In series [1], `COc1ccc(C(=O)Nc2ccc3nn(C4CCCC4)nc3c2)cc1` yielded a logP of 4.03. `O=C(Nc1ccc2nn(C3CCCC3)nc2c1)c1ccc(Cl)c(Cl)c1` gave a logP of 5.32. Turning to `O=C(Nc1ccc2nn(C3CCCC3)nc2c1)C(Cl)Cl`, the logP is 3.4. Still for that read-out and setting: the value for `Cc1ccc(S(=O)(=O)Nc2ccc3nn(C4CCCC4)nc3c2)cc1` was 3.91; that for `O=C(Nc1ccc2nn(C3CCCC3)nc2c1)c1ccc(Cl)cc1` was 4.11. In turn, `O=C(Nc1ccc2nn(C3CCCC3)nc2c1)c1ccc([N+](=O)[O-])cc1` displayed a logP in series [1] of 3.75. Same read-out and setting: the value for `CS(=O)(=O)Nc1ccc2nn(C3CCCC3)nc2c1` was 2.44.
